Key:
[1] = Distribution coefficient determination, D7.4 (1-octanol / K2HPO4 buffer); type: physicochemical; details: 1-octanol / K2HPO4 buffer 50 mM pH 7.4; for logD: read-out: Log D7.4
Experimental: K2HPO4 buffer (50 mM, pH=7.4) and 1-octanol were used as the aqueous phase and the organic phase, respectively. The K2HPO4 buffer and 1-octanol were mixed, and pre-saturated with each other before use.
In a typical experiment, an aqueous solution of Apo6995 (3-hydroxy-2-methyl-1-(2,2,2-trifluoroethyl)pyridin-4(1H)-one) was prepared by weighing out 3 mg of the compound into a 10-mL test-tube. It was then mixed with K2HPO4 buffer (2 mL) and sonicated for 30 minutes with frequent vortexing. The solution was then filtered through HPLC syringe filter (4 mm PVDF syringe filter 0.45 μM) to obtain the aqueous solution.
One mL of this aqueous solution was pipetted out into another 10-mL test-tube and mixed with 1 mL of 1-octanol. The mixture was then vortexed for 1 hour. The solution was centrifuged at 2000 rpm for 10 minutes. A small amount of the lower aqueous layer was carefully pipetted out and analyzed by HPLC to obtain the peak height (HF). The distribution coefficient, D7.4, was calculated using the following equation: D7.4=(HI−HF)/HF.

[2] = tested on: SH-SY5Y human neuroblastoma cells; details: for CC2 (cytotoxic concentration): H2O2-treated cells, viability below 80%; for CC1 (cytotoxic concentration): absence of H2O2, viability below 80%
From the text: Hydrogen peroxide (H2O2) is a major ROS (reactive oxidative species), which causes oxidative stress, and can induce apoptosis in many different cell types. One of the CNS drug design strategies is to use compounds with antioxidant properties as a possible treatment of both acute and chronic neurodegenerative diseases (Kang et al. Bioorganic & Medicinal Chemistry Letters, 2004, 14, 2261-2264). This involves testing the compounds of this invention for their protective effect against oxidative stress-induced cell death in SH-SY5Y human neuroblastoma cells. SH-SY5Y human neuroblastoma cells were cultured in DMEM (ATCC)/F12 (Cellgro) with 10% FBS. The cells were plated at 30,000 cells/cm^2 and grown for 1 day in the regular culture media prior to compound addition. Cells were routinely treated with the test compound, at a pre-determined range of concentrations, in the presence or absence of 50 μM hydrogen peroxide in a basal medium containing no FBS for 16-22 h. Cell viability was then measured using the routine MTT method (Mosmann, T., Rapid Colorimetric Assay for Cellular Growth and Survival: Application to Proliferation and Cytotoxicity Assays”. J. Immunol. Meth. 1983, 65, 55-63).
For data analysis, cell viability relative to control not treated with either H2O2 or the test compound, was plotted against the compound concentration. […] Cytotoxicity of the test compound was assessed in the absence of hydrogen peroxide.

[3] = tested on: human neuroblastoma MC-65 cells; assay: cells; details: for EC100 / minimal effective concentration: Homo sapiens, MC65, 48 h; for EC100: read-out: EC100 (maximum effective concentration); for minimal effective concentration: read-out: TH (threshold protective concentration); for CC2 (cytotoxic concentration): MC-65, cultured without tetracycline; for CC2 (cytotoxic concentration) / CC1 (cytotoxic concentration): viability below 80%; for CC1 (cytotoxic concentration): MC-65, presence of TET
Experimental: In this assay, human neuroblastoma cells (MC-65 cells) are genetically engineered to conditionally express amyloid β peptide (Aβ). The Aβ production is suppressed by tetracycline (TET+) presence in culture medium, and its production is activated when TET is withdrawn (TET−). The activation of Aβ production results in cell death “MC-65 suicide”.
Protective effect of compounds against edogenously produced amyloid beta (Aβ) was assessed in human neuroblastoma MC-65 cells. MC-65 cells have been stably transformed to conditionally express high levels of a partial amyloid precursor (AP) fusion protein (Bryce Sopher et al., Brain Res Mol Brain Res. 1994, 207-17.). This protein is further proteolitically processed in the cells to form a set of AP-derived Aβ peptides. […] Activity of the promoter is tightly regulated by the presence of the antibiotic tetracycline (TET) in the culture medium. In the presence of TET (TET+), the promoter is in the basal state and no amyloid beta peptide is synthesized. In the absence of TET (TET−) the promoter is in induced state, resulting in the accumulation of Aβ peptides in the cells, degenerative changes in cell morphology and decreased survival.
Transfected human neuroblastoma cells (MC-65) were cultured in DMEM (ATCC) supplemented with non-essential amino acids and 10% FBS (VWR) in the presence of TET (1 μg/mL). For the experiment, the cells were plated at 35,000 cells/cm^2 and grown for 1 day in the regular culture media prior to compound addition. On the day of the assay, culture supernatant was removed from the wells and cells were thoroughly washed once with the compound incubation matrix containing no FBS and no TET. MC-65 cells were treated with a test compound at pre-determined range of concentrations in a basal medium containing no FBS and in the absence or presence of 1 μg/mL TET for approximately 48 h. Cell viability was then measured using the MTT method.
For data analysis, cell viabilities relative to the control not treated with a test compound and maintained in the presence of TET were plotted against the compound concentration. […] Cytotoxicity of the test compound was assessed in the cells maintained in the presence of TET.

[4] = Oral cassette dosing PK/BBB studies; type: in vivo, male Sprague-Dawley rats; details: oral cassette dosing, male Sprague-Dawley rats; for AUC brain* / AUC: AUC normalized to 1 mg/kg dose; for Kp / AUC: rat; for Kp: brain and plasma, read-out: AUC brain/AUC plasma; for AUC: plasma
Experimental: In-vivo pharmacokinetic (PK) and blood brain barrier (BBB) studies were conducted in male Sprague-Dawley rats using cassette dosing via oral administration. […] No. 15, pp. 652-658.

Compound | D7.4 [1] | logD [1] | CC2 (cytotoxic concentration) [2] [µM] | CC1 (cytotoxic concentration) [2] [µM] | EC100 [3] [µM] | minimal effective concentration [3] [µM] | CC2 (cytotoxic concentration) [3] [µM] | CC1 (cytotoxic concentration) [3] [µM] | AUC brain* [4] [ng·h/mL] | Kp [4] | AUC [4] [ng·h/mL]
Cc1cc(=O)c(O)c(CN(C)C)n1CC(F)(F)F [Apo7065, 2-[(dimethylamino)methyl]-3-hydroxy-6-methyl-1-(2,2,2-trifluoroethyl)pyridin-4(1H)-one] | 4.93 | 0.69 | >640 | 40 | – | – | – | – | – | – | –
Cn1ccc(=O)c(O)c1C(NC1CC1)C(F)(F)F (stereo not shown) [Apo7074, 2-[1-(cyclopropylamino)-2,2,2-trifluoroethyl]-3-hydroxy-1-methylpyridin-4(1H)-one] | – | – | >640 | 20 | 10 | 0.1 | 20 | 10 | – | – | –
C=CCNC(c1c(O)c(=O)ccn1C)C(F)(F)F (stereo not shown) [Apo7075, 3-hydroxy-1-methyl-2-[2,2,2-trifluoro-1-(prop-2-en-1-ylamino)ethyl]pyridin-4(1H)-one] | – | – | >640 | 20 | 10 | 0.1 | 20 | 10 | – | – | –
Cn1ccc(=O)c(O)c1CC(F)F [Apo7080, 2-(2,2-difluoroethyl)-3-hydroxy-1-methylpyridin-4(1H)-one] | – | – | >640 | 40 | 10 | 0.1 | 40 | 40 | 700 | 0.76 | 920
Cc1cc(=O)c(O)c(CN(C)C)n1CC(F)F [Apo7083, 1-(2,2-difluoroethyl)-2-[(dimethylamino)methyl]-3-hydroxy-6-methylpyridin-4(1H)-one] | 1.70 | 0.23 | – | – | 10 | 0.1 | 40 | 40 | – | – | –
Cn1ccc(=O)c(O)c1C(C(F)F)N1CCN(c2ccccn2)CC1 (stereo not shown) [Apo7316, 2-(2,2-difluoro-1-(4-(pyridin-2-yl)piperazin-1-yl)ethyl)-3-hydroxy-1-methylpyridin-4(1H)-one] | – | – | 320 | 320 | 10 | 1 | 20 | 10 | – | – | –
Cn1ccc(=O)c(O)c1C(C(F)F)N1CCCCC1 (stereo not shown) [Apo7319, 2-(2,2-difluoro-1-(piperidin-1-yl)ethyl)-3-hydroxy-1-methylpyridin-4(1H)-one] | – | – | 320 | 320 | 10 | 1 | 40 | 40 | – | – | –
Cc1cc(=O)c(O)c(C(N2CCOCC2)C(F)(F)F)n1C (stereo not shown) [Apo7333, 3-hydroxy-1,6-dimethyl-2-(2,2,2-trifluoro-1-morpholinoethyl)pyridin-4(1H)-one] | – | – | 320 | 320 | 10 | 1 | 40 | 20 | – | – | –
Cc1cc(=O)c(O)c(C(N2CCN(Cc3ccccc3)CC2)C(F)(F)F)n1C (stereo not shown) [Apo7334, 2-(1-(4-benzylpiperazin-1-yl)-2,2,2-trifluoroethyl)-3-hydroxy-1,6-dimethylpyridin-4(1H)-one] | – | – | 320 | 40 | 10 | 1 | 20 | 10 | – | – | –
Cc1cc(=O)c(O)c(C(N2CCN(c3ccccc3)CC2)C(F)(F)F)n1C (stereo not shown) [Apo7335, 3-hydroxy-1,6-dimethyl-2-(2,2,2-trifluoro-1-(4-phenylpiperazin-1-yl)ethyl)pyridin-4(1H)-one] | – | – | 80 | 80 | 10 | 1 | 20 | 20 | – | – | –
Cc1cc(=O)c(O)c(C(N2CCN(c3ccccn3)CC2)C(F)(F)F)n1C (stereo not shown) [Apo7336, 3-hydroxy-1,6-dimethyl-2-(2,2,2-trifluoro-1-(4-(pyridin-2-yl)piperazin-1-yl)ethyl)pyridin-4(1H)-one] | – | – | 80 | 80 | 10 | 1 | 20 | 10 | – | – | –
Cc1cc(=O)c(O)c(CN2CCOCC2)n1CC(F)(F)F [Apo7434, 3-hydroxy-6-methyl-2-(morpholinomethyl)-1-(2,2,2-trifluoroethyl)pyridin-4(1H)-one] | – | – | 320 | 320 | 20 | 1 | 40 | 40 | – | – | –
Oc1c(I)cc(Cl)c2cccnc12 [Clioquinol, reference compound] | – | – | – | – | – | – | – | – | 42 | 1.5 | 28

Reference: patent US9938240B2, “Fluorinated derivatives of 3-hydroxypyridin-4-ones” (Apotex Technologies Inc., priority 2009, dated 2018)
